According to patent US6541505B1, “Substituted (aminoiminomethyl or aminomethyl) benzoheteroaryl compounds” (Aventis Pharmaceuticals Inc., priority 1998, dated 2003):
Where a name gives a salt, the structure may show the parent alone.

SMILES	melting point [°C]
CN(C)CCCOc1ccc(-c2ccc(C(=O)NCCc3ccc4[nH]cc(C(=N)N)c4c3)cc2)cn1 (as salt: salt) [Example 1aaaaab, N-[2-(3-Carbamimidoyl-1H-indol-5-yl)ethyl]-4-[6-(3-dimethylaminopropoxy)pyridin-3-yl]benzamide]	84 to 86
COCCOc1nccc(-c2ccc(C(=O)NCCc3ccc4[nH]cc(C(=N)N)c4c3)cc2)n1 (as salt: salt) [Example 1aaaal, N-[2-(3-Carbamimidoyl-1H-indol-5-yl)-ethyl]-4-[2-(2-methoxyethoxy)-pyrimidin-4-yl]benzamide]	122 to 124
CN1CCN(c2nccc(-c3ccc(C(=O)NCCc4ccc5[nH]cc(C(=N)N)c5c4)cc3)n2)CC1 (as salt: salt) [Example 1aaae, N-[2-(3-Carbamimidoyl-1H-indol-5-yl)ethyl]-4-[2-(4-methylpiperazin-1-yl)pyrimidin-4-yl]benzamide]	111 to 113
N=C(N)c1c[nH]c2ccc(CCNC(=O)c3ccc(-c4ccnc(CNCCCC(=O)O)n4)cc3)cc12 (as salt: salt) [Example 1aaaf, 4-[(4-{4-[2-(3-Carbamimidoyl-1H-indol-5-yl)ethylcarbamoyl]phenyl}pyrimidin-2-yl)methylamino]butyric acid]	100 to 104
N=C(N)c1c[nH]c2ccc(CCNC(=O)c3ccc(-c4ccnc(N5CCCC5CO)n4)cc3)cc12 (stereo not drawn) (as salt: salt) [Example 1aaaj, N-[2-(3-Carbamimidoyl-1H-indol-5-yl)-ethyl]-4-[2-(2-hydroxymethylpyrrolidin-1-yl)-pyrimidin-4-yl]benzamide]	117 to 120
CN(CC(N)=O)c1nccc(-c2ccc(C(=O)NCCc3ccc4[nH]cc(C(=N)N)c4c3)cc2)n1 (as salt: salt) [Example 1aaak, N-[2-(3-Carbamimidoyl-1H-indol-5-yl)-ethyl]-4-[2-(carbamoylmethyl-N-methylamino)-pyrimidin-4-yl]benzamide]	96 to 98
CN(C)CCCCNc1nccc(-c2ccc(C(=O)NCCc3ccc4[nH]cc(C(=N)N)c4c3)cc2)n1 (as salt: salt) [Example 1aaas, N-[2-(3-Carbamimidoyl-1H-indol-5-yl)ethyl]-4-[2-(4-dimethylaminobutylamino)pyrimidin-4-yl]benzamide]	156 to 159
N=C(N)c1c[nH]c2ccc(CCNC(=O)c3ccc(-c4ccnc(NC5CC6CCC5C6)n4)cc3)cc12 (stereo not drawn) (as salt: salt) [Example 1aaat, 4-[2-(Bicyclo[2.2.1]hept-2-ylamino)pyrimidin-4-yl]-N-[2-(3-carbamimidoyl-1H-indol-5-yl)ethyl]benzamide]	152 to 155

Results, then the molecule that gave them:

melting point [°C]	SMILES
104 to 105	N=C(N)c1c[nH]c2ccc(CCNC(=O)c3ccc(-c4ccnc(OCCN5CCCC5)n4)cc3)cc12 (as salt: salt) [Example 1aaaaq, N-[2-(3-Carbamimidoyl-1H-indol-5-yl)ethyl]-4-[2-(2-pyrrolidin-1-yl-ethoxy)pyrimidin-4-yl]benzamide]
89 to 91	CN(C)CCCCCCNc1nccc(-c2ccc(C(=O)NCCc3ccc4[nH]cc(C(=N)N)c4c3)cc2)n1 (as salt: salt) [Example 1aaar, N-[2-(3-Carbamimidoyl-1H-indol-5-yl)ethyl]-4-[2-(6-dimethylaminohexylamino)pyrimidin-4-yl]benzamide]
139 to 141	N=C(N)c1c[nH]c2ccc(CCNC(=O)c3ccc(-c4ccnc(N5CCCC5C(N)=O)n4)cc3)cc12 (stereo not drawn) (as salt: salt) [Example 1aaau, 1-(4-{4-[2-(3-Carbamimidoyl-1H-indol-5-yl)ethylcarbamoyl]phenyl}pyrimidin-2-yl)pyrrolidine-2-carboxylic acid amide]
97 to 100	CN(CCO)c1nccc(-c2ccc(C(=O)NCCc3ccc4[nH]cc(C(=N)N)c4c3)cc2)n1 (as salt: salt) [Example 1aaav, N-[2-(3-Carbamimidoyl-1H-indol-5-yl)ethyl]-4-{2-[(2-hydroxy-ethyl)-N-methylamino]pyrimidin-4-yl}benzamide]
